Measurements as given in EP0298350A2, “Chiral 6-hydroxymethyl-3-amino-4,5-dihydroxy piperidines, their intermediates, processes for their preparation and their use” (BAYER AG, priority 1987, dated 1989).

Tests used:
Glukosidasen = conditions: known from Angew. Chem. 93, 738 (1981); cited from earlier work
[1] = target: α-N-Acetyl-galaktosaminidase; experiment: Inhibition of α-N-acetylgalactosaminidase; format: biochemical; conditions: α-N-Acetyl-galaktosaminidase aus Charonia lampas; read-out: IC₅₀
[2] = tested on: UDP-gal NAc: polypeptid-α-N-acetylgalaktosaminyl-transferase; experiment: Inhibition of polypeptide α-N-acetylgalactosaminyl transferase activity; format: biochemical; conditions: qualitative statement, no value given
Glykoproteinen = experiment: Effect on half-life of glycoproteins; conditions: qualitative statement, no value given

## OC[C@H]1NC[C@H](O)[C@@H](O)[C@@H]1O [1-Desoxynojirimycin]
Glukosidasen
  Hemmwirkung auf Glukosidasen: Hemmwirkung

## CC(=O)N[C@H]1CN[C@H](CO)[C@H](O)[C@@H]1O [If, 2-N-Acetyl-1,2,5-tridesoxy-1,5-imino-D-galaktit]
[1]
  IC50: 1400 nM
[2]
  Aktivität der UDP-gal NAc: polypeptid-α-N-acetylgalaktosaminyl-transferase: inhibiert
Glykoproteinen
  Halbwertszeit von Glykoproteinen: erhöht
